These results are taken from US10035800B2 (AbbVie Inc., priority 2013, dated 2018).

The target in one assay is T1, BRD4 (BDI_K57-E168) (Homo sapiens, UniProt O60885).
T1 construct: BD1: amino acids K57-E168; made in house
Nature of the assay: TR-FRET bromodomain binding assay, first bromodomain of BRD4. Conditions: TR-FRET assay protocol G (compound 0.92 μM-15 pM); 100 nM probe. As for the experimental part: (§1) Bromodomain Domain Binding Assay
(§2) A time-resolved fluorescence resonance energy transfer (TR-FRET) assay was used to determine the affinities of compounds of the Examples listed in Table 1 for each bromodomain of BRD4. His-tagged first (BD1: amino acids K57-E168) and second (BD2: amino acids […]) bromodomains of BRD4 were expressed and purified. An Alexa647-labeled BET-inhibitor was used as the fluorescent probe in the assay.
(§3) Compound dilution series were prepared in DMSO via an approximately 3-fold serial dilution from one of the following: […]
(§4) Assay method E: 0.47 mM to 7.8 nM […]
(§5) Assay method G: 0.047 mM to 0.78 nM
(§6) or 5-fold serial dilution from one of the following: […]
(§7) Assay method B: 2.5 mM-797 nM […]
(§8) For Assay methods B, E, and G: Compound dilutions were added directly into white, low-volume assay plates (Perkin Elmer Proxiplate 384 Plus#6008280) using a Labcyte Echo in conjunction with Labcyte Access and Thermo Multidrop CombinL robotics. Compounds were then suspended in eight microliters (μL) of assay buffer (20 mM Sodium Phosphate, pH 6.0, 50 mM NaCl, 1 mM Ethylenediaminetetraacetic acid disodium salt dihydrate, 0.01% Triton X-100, 1 mM DL-Dithiothreitol) containing His-tagged bromodomain, Europium-conjugated anti-His antibody (Invitrogen PV5596) and Alexa-647-conjugated probe.
(§9) The final concentration of 1× assay mixture for assay methods A, B, C, D, E, F, and G contains 2% DMSO, 8 nM His-tagged bromodomain, 1 nM Europium-conjugated anti-His-tag antibody and 100 nM or 30 nM probe (for BDI or BDII, respectively) and compound concentration in the range of: 50 μM-16 nM for method A, 49.02 μM-15.63 nM for method B, 25 μM-423 pM for method C, 10 μM-169 pM for method D, 9.19 μM-150 pM for method E, 5 μM-85 pM for method F, and 0.92 μM-15 pM for method G.
(§10) After a one-hour equilibration at room temperature, TR-FRET ratios were determined using an Envision multilabel plate reader (Ex 340, Em 495/520).
(§11) TR-FRET data were normalized to the means of 24 no-compound controls (“high”) and 8 controls containing 1 μM un-labeled probe (“low”). Percent inhibition was plotted as a function of compound concentration and the data were fit with the 4 parameter logistic equation to obtain IC50s. Inhibition constants (Ki) were calculated from the IC50s, probe Kd and probe concentration. Typical Z′ values were between 0.65 and 0.75. The minimum significant ratio was determined to evaluate assay reproducibility (Eastwood et al., (2006) J Biomol Screen, 11: 253-261). The MSR was determined to be 2.03 for BDI and 1.93 for BDII, and a moving MSR (last six run MSR overtime) for both BDI and BDII was typically <3.

For the next assay, the target named is T2, BRD4 (BDII_E352-M457) (Homo sapiens, UniProt O60885).
T2 construct: protocol; made in house
The experiment in a line: TR-FRET bromodomain binding assay, second bromodomain of BRD4. The conditions noted are these: TR-FRET assay protocol G (compound 0.92 μM-15 pM); 30 nM probe. The protocol: as §1, §2, §3, §4, §5, §6, §7, §8, §9, §10, §11
(In general: Time-resolved FRET reads energy transfer from a long-lived donor to a nearby acceptor.)

Broadly, the Ki is a measure of affinity in units of concentration, obtained from inhibition or displacement.

Some results are limits rather than exact numbers.

On to `Cn1cc2c3c(c[nH]c3c1=O)C(C(=O)NCc1cocn1)N(c1ccc(F)cc1F)c1ccc(CS(C)(=O)=O)cc1-2` (centres unmarked) [Example 163, 4-(2,4-difluorophenyl)-10-methyl-7-((methylsulfonyl)methyl)-N-(oxazol-4-ylmethyl)-11-oxo-3,4,10,11-tetrahydro-1H-1,4,10-triazadibenzo[cd,f]azulene-3-carboxamide], for which the figures for the Ki on BRD4 (BDI_K57-E168) and at BRD4 (BDII_E352-M457) were 57.4 nM and 45.4 nM, respectively.

For the compound “7-fluoro-10-methyl-3,4-dihydro-1H-1,4,5,10-tetraazadibenzo[cd,f]azulen-11(10H)-one [Example 38]”, the figures for the Ki on BRD4 (BDI_K57-E168) and on BRD4 (BDII_E352-M457) were greater than 238 nM and greater than 408 nM, respectively.

On to `CCCCC(CC)COC(=O)N1Cc2c[nH]c3c(=O)n(C)cc(c23)-c2cc(CS(C)(=O)=O)ccc21` (centres unmarked) [Example 53, 2-ethylhexyl 10-methyl-7-((methylsulfonyl)methyl)-11-oxo-10,11-dihydro-1H-1,4,10-triazadibenzo[cd,f]azulene-4(3H)-carboxylate], for which the figures for the inhibition constant Ki at BRD4 (BDI_K57-E168) and on BRD4 (BDII_E352-M457) were 4.78 nM and 21.9 nM, respectively.

On to `Cn1cc2c3c(c[nH]c3c1=O)CN(C(=O)c1ccc(F)cc1)c1ccc(CS(C)(=O)=O)cc1-2` [Example 100, 4-(4-fluorobenzoyl)-10-methyl-7-((methylsulfonyl)methyl)-3,4-dihydro-1H-1,4,10-triazadibenzo[cd,f]azulen-11(10H)-one], for which the values for the Ki on BRD4 (BDI_K57-E168) and on BRD4 (BDII_E352-M457) were 29.8 nM and 7.41 nM, respectively.

As to “4-(1-ethylpiperidin-3-yl)-10-methyl-7-((methylsulfonyl)methyl)-3,4-dihydro-1H-1,4,10-triazadibenzo[cd,f]azulen-11(10H)-one [Example 190]”, the Ki at BRD4 (BDI_K57-E168) was 26.7 nM; on BRD4 (BDII_E352-M457), 30.9 nM.

As to `CCOC(=O)C1c2c[nH]c3c(=O)n(C)cc(c23)-c2cc(C)cnc2N1c1ccc(F)cc1` (centres unmarked) [Example 43, ethyl 4-(4-fluorophenyl)-7,10-dimethyl-11-oxo-3,4,10,11-tetrahydro-1H-1,4,5,10-tetraazadibenzo[cd,f]azulene-3-carboxylate], the figures for the Ki on BRD4 (BDI_K57-E168) and at BRD4 (BDII_E352-M457) were 7.29 nM and 24.7 nM, respectively.

Take `CCN1CCCC(CN2Cc3c[nH]c4c(=O)n(C)cc(c34)-c3cc(CS(C)(=O)=O)ccc32)C1` (centres unmarked) [Example 150, 4-((1-ethylpiperidin-3-yl)methyl)-10-methyl-7-((methylsulfonyl)methyl)-3,4-dihydro-1H-1,4,10-triazadibenzo[cd,f]azulen-11(10H)-one]: the inhibition constant Ki at BRD4 (BDI_K57-E168) was 4.05 nM; on BRD4 (BDII_E352-M457), 10.8 nM.

For `Cn1cc(-c2[nH]c3c(=O)n(C)cc4c3c2CN(c2ccccn2)c2ccc(S(C)(=O)=O)cc2-4)cn1` [Example 275, 10-methyl-2-(1-methyl-1H-pyrazol-4-yl)-7-(methylsulfonyl)-4-(pyridin-2-yl)-3,4-dihydro-1H-1,4,10-triazadibenzo[cd,f]azulen-11(10H)-one], the results for the inhibition constant (Ki) on BRD4 (BDI_K57-E168) and on BRD4 (BDII_E352-M457) were 2.09 nM and 0.85 nM, respectively.

Consider `Cn1cc2c3c(c[nH]c3c1=O)CN(C(=O)Nc1ccc(F)c(C(F)(F)F)c1)c1ccc(CS(C)(=O)=O)cc1-2` [Example 71, N-(4-fluoro-3-(trifluoromethyl)phenyl)-10-methyl-7-((methylsulfonyl)methyl)-11-oxo-10,11-dihydro-1H-1,4,10-triazadibenzo[cd,f]azulene-4(3H)-carboxamide], for which the results for the Ki on BRD4 (BDI_K57-E168) and at BRD4 (BDII_E352-M457) were 30.4 nM and 26.7 nM, respectively.

`COc1cccc(CC(=O)N2Cc3c[nH]c4c(=O)n(C)cc(c34)-c3cc(CS(C)(=O)=O)ccc32)c1` [Example 104, 4-(2-(3-methoxyphenyl)acetyl)-10-methyl-7-((methylsulfonyl)methyl)-3,4-dihydro-1H-1,4,10-triazadibenzo[cd,f]azulen-11(10H)-one]: the Ki came out at 34.7 nM at BRD4 (BDI_K57-E168) and 26.2 nM at BRD4 (BDII_E352-M457).

Consider “4-([1,1′-biphenyl]−4-ylsulfonyl)-10-methyl-7-((methylsulfonyl)methyl)-3,4-dihydro-1H-1,4,10-triazadibenzo[cd,f]azulen-11(10H)-one [Example 75]”, for which the inhibition constant (Ki) on BRD4 (BDI_K57-E168) was greater than 238 nM; on BRD4 (BDII_E352-M457), greater than 408 nM.

As for “tert-butyl 4-(3-(4-(2,4-difluorophenyl)-10-methyl-7-((methylsulfonyl)methyl)-11-oxo-3,4,10,11-tetrahydro-1H-1,4,10-triazadibenzo[cd,f]azulen-3-yl)propanamido)piperidine-1-carboxylate [Example 126]”, the inhibition constant (Ki) on BRD4 (BDI_K57-E168) is 53.6 nM; at BRD4 (BDII_E352-M457) it was 80 nM.

As for `Cn1cc2c3c(c[nH]c3c1=O)CN(CC1CCOC(C)(C)C1)c1ccc(CS(C)(=O)=O)cc1-2` (racemic) [Example 152, 4-((2,2-dimethyltetrahydro-2H-pyran-4-yl)methyl)-10-methyl-7-((methylsulfonyl)methyl)-3,4-dihydro-1H-1,4,10-triazadibenzo[cd,f]azulen-11(10H)-one], the Ki at BRD4 (BDI_K57-E168) was determined as 7.18 nM; on BRD4 (BDII_E352-M457) it was 11 nM.

On to “(R)—N-ethyl-7-(ethylsulfonyl)-10-methyl-11-oxo-4-(1-phenylpropyl)-3,4,10,11-tetrahydro-1H-1,4,10-triazadibenzo[cd,f]azulene-2-carboxamide [Example 272]”, for which the values for the Ki on BRD4 (BDI_K57-E168) and on BRD4 (BDII_E352-M457) were 58.9 nM and 6.35 nM, respectively.

On to `Cn1cc(-c2[nH]c3c(=O)n(C)cc4c3c2CN(c2ccccn2)c2ccc(CS(C)(=O)=O)cc2-4)cn1` [Example 273, 10-methyl-2-(1-methyl-1H-pyrazol-4-yl)-7-((methylsulfonyl)methyl)-4-(pyridin-2-yl)-3,4-dihydro-1H-1,4,10-triazadibenzo[cd,f]azulen-11(10H)-one], for which the Ki at BRD4 (BDI_K57-E168) amounted to 1.12 nM; on BRD4 (BDII_E352-M457), 0.88 nM.

In the case of `Cn1cc2c3c(c[nH]c3c1=O)CN(C(=O)c1ccccc1)c1ccc(CS(C)(=O)=O)cc1-2` [Example 109, 4-benzoyl-10-methyl-7-((methylsulfonyl)methyl)-3,4-dihydro-1H-1,4,10-triazadibenzo[cd,f]azulen-11(10H)-one], the Ki came to 64.1 nM at BRD4 (BDI_K57-E168) and 15.6 nM at BRD4 (BDII_E352-M457).

Take `Cn1cc2c3c(c[nH]c3c1=O)C(C(=O)NC1(C)CC1)N(c1ccc(F)cc1F)c1ccc(CS(C)(=O)=O)cc1-2` (racemic) [Example 167, 4-(2,4-difluorophenyl)-10-methyl-N-(1-methylcyclopropyl)-7-((methylsulfonyl)methyl)-11-oxo-3,4,10,11-tetrahydro-1H-1,4,10-triazadibenzo[cd,f]azulene-3-carboxamide]: the results for the Ki at BRD4 (BDI_K57-E168) and at BRD4 (BDII_E352-M457) were 69.2 nM and 76.3 nM, respectively.

For the compound `COC(=O)CC[C@H]1c2c[nH]c3c(=O)n(C)cc(c23)-c2cc(CS(C)(=O)=O)ccc2N1c1ccc(F)cc1F` (single isomer, unassigned) [Example 269], the Ki came to 5.69 nM at BRD4 (BDI_K57-E168) and 0.92 nM at BRD4 (BDII_E352-M457).

Consider “N-(3-methoxypropyl)-10-methyl-7-((methylsulfonyl)methyl)-11-oxo-10,11-dihydro-1H-1,4,10-triazadibenzo[cd,f]azulene-4(3H)-carboxamide [Example 73]”, for which the values for the Ki at BRD4 (BDI_K57-E168) and on BRD4 (BDII_E352-M457) were 16.5 nM and 19.4 nM, respectively.

For `CCOC(=O)C1Nc2ncc(F)cc2-c2cn(C)c(=O)c3[nH]cc1c23` (centres unmarked) [Example 39, ethyl 7-fluoro-10-methyl-11-oxo-3,4,10,11-tetrahydro-1H-1,4,5,10-tetraazadibenzo[cd,f]azulene-3-carboxylate], the Ki on BRD4 (BDI_K57-E168) was greater than 238 nM; at BRD4 (BDII_E352-M457) it was greater than 408 nM.

Consider `Cn1cc2c3c(c[nH]c3c1=O)C(C(=O)NCCO)N(c1ccc(F)cc1F)c1ccc(CS(C)(=O)=O)cc1-2` (centres unmarked) [Example 162, 4-(2,4-difluorophenyl)-N-(2-hydroxyethyl)-10-methyl-7-((methylsulfonyl)methyl)-11-oxo-3,4,10,11-tetrahydro-1H-1,4,10-triazadibenzo[cd,f]azulene-3-carboxamide], for which the Ki was 47.1 nM at BRD4 (BDI_K57-E168) and 60.4 nM on BRD4 (BDII_E352-M457).

On to `Cn1cc2c3c(c[nH]c3c1=O)CN(C(=O)c1ccc3ccccc3c1)c1ccc(CS(C)(=O)=O)cc1-2` [Example 81, 4-(2-naphthoyl)-10-methyl-7-((methylsulfonyl)methyl)-3,4-dihydro-1H-1,4,10-triazadibenzo[cd,f]azulen-11(10H)-one], for which the values for the Ki on BRD4 (BDI_K57-E168) and at BRD4 (BDII_E352-M457) were 51.7 nM and 32.3 nM, respectively.
